Key:
HEL [1] = assay: Cytotoxic concentration required to inhibit HEL cell growth by 50 %; assay type: functional; conditions: Homo sapiens
HEL [2] = assay: Minimum cytotoxic concentration required to alter microscopically detectable HEL cell morphology; assay type: functional; conditions: Homo sapiens
Human alphaherpesvirus 3 [3] = assay: Effective concentration required for reduction of plaque formation of Varicella-Zoster Virus, (YS strain); assay type: functional, organism-based
Human alphaherpesvirus 3 [4] = assay: Effective concentration required for reduction of plaque formation of thymidine kinase deficient Varicella-Zoster Virus (071 strain); assay type: functional, organism-based
Human alphaherpesvirus 3 [5] = assay: Effective concentration required for reduction of plaque formation of Varicella-Zoster Virus (OKA strain); assay type: functional, organism-based
Human alphaherpesvirus 3 [6] = assay: Effective concentration required for reduction of plaque formation of thymidine kinase deficient Varicella-Zoster Virus (YSR strain); assay type: functional, organism-based

Row | SMILES | CC50 (HEL [1]) [µM] | MCC (HEL [2]) [µM] | EC50 (Human alphaherpesvirus 3 [3]) [µM] | EC50 (Human alphaherpesvirus 3 [4]) [µM] | EC50 (Human alphaherpesvirus 3 [5]) [µM] | EC50 (Human alphaherpesvirus 3 [6]) [µM]
1 | CCCCCCCCCCc1cc2cn([C@H]3C[C@H](O)[C@@H](CO)O3)c(=O)nc2o1 | > 50 |  |  |  |  | 
2 | CCCCCCCCc1cc2cn([C@H]3C[C@H](O)[C@@H](CO)O3)c(=O)nc2o1 | > 50 |  |  |  |  | 
3 | CCCCCCc1cc2cn([C@H]3C[C@H](O)[C@@H](CO)O3)c(=O)nc2o1 | > 200 | > 50 |  |  |  | 
4 | CCCCCCCc1cc2cn([C@H]3C[C@H](O)[C@@H](CO)O3)c(=O)nc2o1 | > 50 |  |  |  |  | 
5 | C#CCCCCCCc1cc2cn([C@H]3C[C@H](O)[C@@H](CO)O3)c(=O)nc2o1 | > 200 | > 200 | 4 | > 200 | 5 | > 200
6 | C#CCCCCCc1cc2cn([C@H]3C[C@H](O)[C@@H](CO)O3)c(=O)nc2o1 | > 200 | > 200 | 37 | > 200 | 79 | > 200
7 | C=CCCCCc1cc2cn([C@H]3C[C@H](O)[C@@H](CO)O3)c(=O)nc2o1 | > 200 | > 200 | 13 | > 200 | 14 | > 200
8 | C=CCCCCCCc1cc2cn([C@H]3C[C@H](O)[C@@H](CO)O3)c(=O)nc2o1 | > 200 | > 200 | 0.06 | > 200 | 0.27 | > 50
9 | C=CCCCc1cc2cn([C@H]3C[C@H](O)[C@@H](CO)O3)c(=O)nc2o1 | > 200 | > 200 | > 200 | > 200 | > 200 | > 200
10 | CCCCCc1cc2cn([C@H]3C[C@H](O)[C@@H](CO)O3)c(=O)nc2o1 | > 50 |  |  |  |  | 
11 | C=CCCCCCCCCc1cc2cn([C@H]3C[C@H](O)[C@@H](CO)O3)c(=O)nc2o1 | > 200 | > 50 | 0.1 | > 200 | 0.09 | > 200
12 | C#CCCCc1cc2cn([C@H]3C[C@H](O)[C@@H](CO)O3)c(=O)nc2o1 | > 200 | > 200 | 10 | > 200 | 8 | > 200
13 | C#CCCCCc1cc2cn([C@H]3C[C@H](O)[C@@H](CO)O3)c(=O)nc2o1 | > 200 | > 200 | 33 | > 200 | 25 | > 200
14 | Nc1nc2c(ncn2COCCO)c(=O)[nH]1 [ACYCLOVIR] | > 200 |  |  | > 4 |  | 
